The values that follow come from ChEMBL document CHEMBL5523701, “Structure-based discovery of small molecule inhibitors of FKBP51-Hsp90 protein-protein interaction” (Eur J Med Chem, 2024).

Molecules are shown by their SMILES. Some results are limits rather than exact numbers.

Series [1] deals with T1, Peptidyl-prolyl cis-trans isomerase FKBP4 (Homo sapiens, UniProt Q02790).
T1 sequence (Q02790 whole entry): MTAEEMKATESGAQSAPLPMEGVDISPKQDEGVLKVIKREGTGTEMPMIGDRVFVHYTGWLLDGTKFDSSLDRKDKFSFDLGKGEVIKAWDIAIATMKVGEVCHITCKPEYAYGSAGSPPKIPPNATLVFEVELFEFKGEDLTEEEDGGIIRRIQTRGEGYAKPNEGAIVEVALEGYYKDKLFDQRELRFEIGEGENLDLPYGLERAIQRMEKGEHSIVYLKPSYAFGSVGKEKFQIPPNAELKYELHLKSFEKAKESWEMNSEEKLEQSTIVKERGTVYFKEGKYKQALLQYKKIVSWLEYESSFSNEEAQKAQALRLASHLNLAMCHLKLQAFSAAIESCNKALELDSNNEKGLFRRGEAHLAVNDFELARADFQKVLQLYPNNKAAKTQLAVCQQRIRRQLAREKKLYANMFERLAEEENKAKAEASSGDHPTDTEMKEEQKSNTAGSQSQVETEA
Nature of the series: Inhibition of GST-tagged human FKBP52 expressed in Escherichia coli BL21 (DE3) using NH2-EDASRMEEVD-COOH peptide as substrate preincubated for 15 mins followed by substrate addition measured after 15 mins by Alpha Screen assay. A general note: In Alpha technology, singlet oxygen from a donor bead excites a nearby acceptor bead.

For series [2], the target named is T2, Serine/threonine-protein phosphatase 5 (Homo sapiens, UniProt P53041).
T2 sequence (P53041 whole entry): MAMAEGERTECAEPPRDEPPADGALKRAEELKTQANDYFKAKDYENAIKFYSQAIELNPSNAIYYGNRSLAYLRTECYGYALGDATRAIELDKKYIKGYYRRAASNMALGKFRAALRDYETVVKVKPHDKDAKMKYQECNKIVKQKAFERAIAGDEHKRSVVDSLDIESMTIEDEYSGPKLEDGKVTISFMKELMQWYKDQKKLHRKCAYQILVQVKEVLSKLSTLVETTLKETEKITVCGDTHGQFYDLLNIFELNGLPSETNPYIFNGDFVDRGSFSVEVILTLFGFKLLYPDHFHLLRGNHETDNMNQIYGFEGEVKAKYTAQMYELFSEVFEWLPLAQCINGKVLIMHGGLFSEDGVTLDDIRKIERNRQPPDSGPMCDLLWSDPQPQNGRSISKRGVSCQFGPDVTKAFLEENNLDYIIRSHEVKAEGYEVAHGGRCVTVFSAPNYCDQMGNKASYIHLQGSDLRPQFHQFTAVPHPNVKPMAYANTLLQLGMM
Nature of the series: Inhibition of GST-tagged human PP5 expressed in Escherichia coli BL21 (DE3) using NH2-EDASRMEEVD-COOH peptide as substrate preincubated for 15 mins followed by substrate addition measured after 15 mins by Alpha Screen assay.

Series [3] addresses Stress-induced-phosphoprotein 1 (Homo sapiens, UniProt P31948). The series can be described thus: Inhibition of GST-tagged human HOP expressed in Escherichia coli BL21 (DE3) using NH2-EDASRMEEVD-COOH peptide as substrate preincubated for 15 mins followed by substrate addition measured after 15 mins by Alpha Screen assay.
The target of series [4] is T3, E3 ubiquitin-protein ligase CHIP (Homo sapiens, UniProt Q9UNE7).
T3 sequence (Q9UNE7 whole entry): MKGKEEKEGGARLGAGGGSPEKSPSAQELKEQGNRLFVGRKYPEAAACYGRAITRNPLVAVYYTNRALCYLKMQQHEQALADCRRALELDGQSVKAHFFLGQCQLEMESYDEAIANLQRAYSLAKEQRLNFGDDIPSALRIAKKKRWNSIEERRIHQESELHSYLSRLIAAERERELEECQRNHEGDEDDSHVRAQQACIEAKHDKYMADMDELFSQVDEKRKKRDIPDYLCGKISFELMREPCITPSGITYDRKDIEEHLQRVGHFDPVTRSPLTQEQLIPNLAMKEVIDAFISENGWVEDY
The series can be described thus: Inhibition of GST-tagged human CHIP expressed in Escherichia coli BL21 (DE3) using NH2-EDASRMEEVD-COOH peptide as substrate preincubated for 15 mins followed by substrate addition measured after 15 mins by Alpha Screen assay.

The nature of series [5]: Inhibition of GST-tagged FKBP51 N381Y mutant (unknown origin) using NH2-EDASRMEEVD-COOH peptide as substrate preincubated for 15 mins followed by substrate addition measured after 15 mins by Alpha Screen assay. Further details: species or system Homo sapiens.
For series [6] the following is noted: buffer.
Description: Solubility of compound in aqueous solution
Series [7] concerns the target Small glutamine-rich tetratricopeptide repeat-containing protein alpha (Homo sapiens, UniProt O43765). The series can be described thus: Inhibition of GST-tagged human SGTA expressed in Escherichia coli BL21 (DE3) using NH2-EDASRMEEVD-COOH peptide as substrate preincubated for 15 mins followed by substrate addition measured after 15 mins by Alpha Screen assay.
A short description of series [8]: Inhibition of GST-tagged FKBP51 Y355F mutant (unknown origin) using NH2-EDASRMEEVD-COOH peptide as substrate preincubated for 15 mins followed by substrate addition measured after 15 mins by Alpha Screen assay. Further details: species or system Homo sapiens.
For series [9], the target named is T4, Mitochondrial import receptor subunit TOM70 (Homo sapiens, UniProt O94826).
T4 sequence (O94826 whole entry): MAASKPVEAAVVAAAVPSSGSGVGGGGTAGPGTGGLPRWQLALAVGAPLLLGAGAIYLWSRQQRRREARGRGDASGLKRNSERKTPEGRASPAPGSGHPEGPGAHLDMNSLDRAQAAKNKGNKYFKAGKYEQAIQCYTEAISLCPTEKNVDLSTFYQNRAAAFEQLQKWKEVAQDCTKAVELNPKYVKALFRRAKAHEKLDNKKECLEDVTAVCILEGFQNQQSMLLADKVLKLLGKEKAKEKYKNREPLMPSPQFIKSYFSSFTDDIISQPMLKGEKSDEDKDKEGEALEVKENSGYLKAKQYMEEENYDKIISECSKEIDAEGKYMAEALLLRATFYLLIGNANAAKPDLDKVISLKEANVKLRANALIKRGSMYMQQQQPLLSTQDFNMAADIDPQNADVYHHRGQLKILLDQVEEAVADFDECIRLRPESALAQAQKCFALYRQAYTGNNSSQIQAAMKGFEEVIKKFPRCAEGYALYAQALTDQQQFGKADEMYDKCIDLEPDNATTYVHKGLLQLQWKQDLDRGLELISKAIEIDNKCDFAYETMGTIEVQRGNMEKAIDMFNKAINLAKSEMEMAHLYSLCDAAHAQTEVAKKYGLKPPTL
Nature of the series: Inhibition of GST-tagged human TOM70 expressed in Escherichia coli BL21 (DE3) using NH2-EDASRMEEVD-COOH peptide as substrate preincubated for 15 mins followed by substrate addition measured after 15 mins by Alpha Screen assay.

Series [10] has as its target T5, DnaJ homolog subfamily C member 7 (Homo sapiens, UniProt Q99615).
T5 sequence (Q99615 whole entry): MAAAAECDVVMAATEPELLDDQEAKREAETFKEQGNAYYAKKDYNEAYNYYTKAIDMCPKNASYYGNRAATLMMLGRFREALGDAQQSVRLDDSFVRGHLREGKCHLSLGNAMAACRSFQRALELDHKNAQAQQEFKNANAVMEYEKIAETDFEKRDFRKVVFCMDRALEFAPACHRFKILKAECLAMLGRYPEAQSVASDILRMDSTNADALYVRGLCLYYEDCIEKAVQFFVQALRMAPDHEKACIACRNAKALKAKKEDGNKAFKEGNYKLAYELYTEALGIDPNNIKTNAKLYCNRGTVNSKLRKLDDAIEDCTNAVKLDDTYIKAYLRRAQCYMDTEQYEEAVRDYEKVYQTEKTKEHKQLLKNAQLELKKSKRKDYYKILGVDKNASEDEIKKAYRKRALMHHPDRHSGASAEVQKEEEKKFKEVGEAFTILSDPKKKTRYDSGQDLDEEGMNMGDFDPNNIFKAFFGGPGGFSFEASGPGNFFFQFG
The series can be described thus: Inhibition of GST-tagged human DNAJC7 expressed in Escherichia coli BL21 (DE3) using NH2-EDASRMEEVD-COOH peptide as substrate preincubated for 15 mins followed by substrate addition measured after 15 mins by Alpha Screen assay.

For series [11], the target named is T6, AH receptor-interacting protein (Homo sapiens, UniProt O00170).
T6 sequence (O00170 whole entry): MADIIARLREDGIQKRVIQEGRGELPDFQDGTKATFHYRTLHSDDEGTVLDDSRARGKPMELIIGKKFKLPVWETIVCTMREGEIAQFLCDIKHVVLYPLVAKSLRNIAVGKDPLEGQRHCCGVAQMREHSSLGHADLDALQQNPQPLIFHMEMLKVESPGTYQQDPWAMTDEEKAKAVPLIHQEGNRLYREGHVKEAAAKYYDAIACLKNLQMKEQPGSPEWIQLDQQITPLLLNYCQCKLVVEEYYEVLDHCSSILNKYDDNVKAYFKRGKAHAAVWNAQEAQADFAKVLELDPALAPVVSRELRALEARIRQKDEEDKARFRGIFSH
The series can be described thus: Inhibition of GST-tagged human AIP expressed in Escherichia coli BL21 (DE3) using NH2-EDASRMEEVD-COOH peptide as substrate preincubated for 15 mins followed by substrate addition measured after 15 mins by Alpha Screen assay.

The target of series [12] is T7, Peptidyl-prolyl cis-trans isomerase FKBP5 (Homo sapiens, UniProt Q13451).
T7 sequence (Q13451 whole entry): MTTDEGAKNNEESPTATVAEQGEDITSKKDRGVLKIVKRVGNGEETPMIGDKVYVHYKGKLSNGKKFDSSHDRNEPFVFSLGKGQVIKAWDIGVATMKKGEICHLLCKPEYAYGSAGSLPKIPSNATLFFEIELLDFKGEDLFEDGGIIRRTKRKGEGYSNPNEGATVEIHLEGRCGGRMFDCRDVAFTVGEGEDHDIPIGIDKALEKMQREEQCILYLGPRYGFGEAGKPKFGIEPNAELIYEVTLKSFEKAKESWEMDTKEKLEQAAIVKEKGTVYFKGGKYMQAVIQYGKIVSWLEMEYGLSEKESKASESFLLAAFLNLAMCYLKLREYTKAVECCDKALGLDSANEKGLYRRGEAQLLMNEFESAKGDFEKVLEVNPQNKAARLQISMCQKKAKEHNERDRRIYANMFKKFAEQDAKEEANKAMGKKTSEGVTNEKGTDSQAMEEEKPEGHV
The series can be described thus: Inhibition of GST-tagged human FKBP51 expressed in Escherichia coli BL21 (DE3) using NH2-EDASRMEEVD-COOH peptide as substrate preincubated for 15 mins followed by substrate addition measured after 15 mins by Alpha Screen assay.

Chain of Small glutamine-rich tetratricopeptide repeat-containing protein alpha (O43765 whole entry): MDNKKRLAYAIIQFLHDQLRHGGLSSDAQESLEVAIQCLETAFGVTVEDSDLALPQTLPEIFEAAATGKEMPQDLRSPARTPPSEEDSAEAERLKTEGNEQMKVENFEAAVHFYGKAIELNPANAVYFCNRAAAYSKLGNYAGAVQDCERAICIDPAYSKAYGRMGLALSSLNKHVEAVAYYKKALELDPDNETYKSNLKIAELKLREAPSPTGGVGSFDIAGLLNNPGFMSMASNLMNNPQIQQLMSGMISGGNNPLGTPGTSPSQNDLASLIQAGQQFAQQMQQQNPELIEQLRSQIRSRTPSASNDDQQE
Chain of Stress-induced-phosphoprotein 1 (P31948 whole entry): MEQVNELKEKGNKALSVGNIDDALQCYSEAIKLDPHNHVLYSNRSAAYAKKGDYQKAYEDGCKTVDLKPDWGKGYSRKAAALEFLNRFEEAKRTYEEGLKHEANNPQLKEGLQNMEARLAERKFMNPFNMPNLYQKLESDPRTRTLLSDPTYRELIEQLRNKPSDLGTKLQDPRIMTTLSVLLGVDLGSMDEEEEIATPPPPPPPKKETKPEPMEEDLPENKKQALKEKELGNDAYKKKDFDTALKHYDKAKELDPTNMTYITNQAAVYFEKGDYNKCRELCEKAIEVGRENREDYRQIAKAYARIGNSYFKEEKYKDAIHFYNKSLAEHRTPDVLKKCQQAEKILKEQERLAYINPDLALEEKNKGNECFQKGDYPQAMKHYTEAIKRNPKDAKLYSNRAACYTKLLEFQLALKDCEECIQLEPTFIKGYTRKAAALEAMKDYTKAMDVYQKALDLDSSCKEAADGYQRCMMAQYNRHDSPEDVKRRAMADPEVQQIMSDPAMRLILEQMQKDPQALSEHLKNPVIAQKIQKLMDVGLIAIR

As a reminder, the IC50 is the midpoint of a concentration-inhibition curve. Turning to `CCOc1ccc2cc(C#N)c(SCC(=O)Nc3cccc(F)c3)nc2c1`, the IC50 in [1] was found to be 6 µM.

As for `CCC1CCc2c(sc(NC(=O)CCCC(=O)Nc3sc4c(c3C(N)=O)CCC(CC)C4)c2C(N)=O)C1` (stereo not drawn), the solubility entry is “Insoluble”. Moreover, the IC50 in [2] came to 0.03 µM. Moreover, the concentration for half-maximal inhibition (IC50) in [3] is 10 µM. The same compound showed an IC50 in [4] of 1 µM. This compound also came in with a concentration for half-maximal inhibition (IC50) in [5] of 0.05 µM. In addition, in series [6], the solubility result is reported as “Insoluble”. In addition, it took 0.1 µM to reach half-maximal inhibition in series [7] (IC50). In series [8], the half-inhibitory concentration (IC50) came out at 40 µM. Also, the IC50 in series [9] is 1.5 µM. The same compound showed an IC50 in series [10] of 1 µM. This compound gave a half-maximal inhibitory concentration (IC50) in series [11] of 10 µM.

As for `O=C(CSc1nnc(-c2ccc(S(=O)(=O)N3CCCC3)cc2)o1)Nc1ccc(F)cc1`, the IC50 in series [1] was 6 µM.

Consider `CCC(=O)Nc1ccc(NC(=O)CSc2nc3cc4c(cc3cc2C)CCC4)cc1C`, for which the IC50 in series [1] stood at 5 µM. The IC50 values of the last two compounds are within 1.5-fold of each other.

Turning to `CCC(=O)Nc1ccc(NC(=O)CSc2nc3cc4c(cc3cc2C)CCC4)cc1`, the 50% inhibitory concentration (IC50) in series [1] stood at 3 µM.

As to `CCOc1ccc2cc(C#N)c(SCC(=O)NCCc3ccccc3)nc2c1`, 5 µM corresponded to half-maximal inhibition in [1] (IC50).

In series [1], `CCS(=O)(=O)Nc1ccc(-c2nnc(SCC(=O)c3c(C)c(C)cc(C)c3C)o2)cc1` registered a half-inhibitory concentration (IC50) of 6 µM.

With `Cc1ccc(NC(=O)c2cc(NC(=O)c3ccccc3)cc(NC(=O)c3ccccc3)c2)cc1C`, in series [1], the IC50 is more than 100 µM.

Compound `CCOC(=O)c1c(NC(=O)CSc2n[nH]c(CNc3ccccc3)n2)sc(C)c1C` came in with an IC50 in series [1] of 8 µM.

Regarding `CCc1nnc(NC(=O)CSc2nc(-c3ccc(C)cc3)cc(-c3ccc(OC)cc3)c2C#N)o1`, the figures for the half-maximal inhibitory concentration (IC50) in series [12] and in series [1] were 2 µM and 3 µM, respectively.

`CCOC(=O)CC(=O)CSc1nc(C)c2cc(OCC)ccc2n1` came in with an IC50 in [1] of 9 µM.

In series [1], `CCOC(=O)c1c(NC(=O)CSc2nnc(-c3cccc(O)c3)o2)sc(C)c1C` registered a concentration for half-maximal inhibition (IC50) of 3 µM.
